# Laboratory results as given in patent US10974081B2, “Treatment and prevention of sleep disorders” (Purdue Pharma L.P., priority 2016, dated 2021).
# Where two headings read alike, the source gives them in different places.
# Experiments:
# [1] = In vivo renal clearance in humans; parameters: species or system human; conditions: for CL renal: male, human, urine
# Description: Four healthy male subjects were administered each dose. Table 25 below provides the results in the form of the mean renal clearance, mean total amount excreted unchanged ad Compound (1D), and mean percentage dose excreted unchanged.
# rats [2] = tested on: rats
# in vivo [3] = conditions: male, Crl:CD(SD), rat, po, no-observed-adverse-effect-level (NOAEL)
# [4] = In vivo clearance of radiolabeled Compound (1D), rats; conditions: within 48 hours of oral dosing
# [5] = Aqueous solubility at pH about 6.8; format: physicochemical; conditions: 25 °C, pH 6.8, aqueous buffer, kinetic from dmso stock, single value, procedure not stated; read-out: Solubility at pH 6.8
# human liver microsomes = assay: In vitro metabolic stability, human liver microsomes; format: in vitro ADME; conditions: 2 μM, % remaining after 30 minutes at 37° C.
# Description: The comparative in vitro metabolic stabilities of Compounds (1F), […], and W-212393 were determined upon exposure to human liver microsomes or rat liver microsomes according to a procedure disclosed in, e.g., Example 14 of U.S. Pat. No. 9,290,488, which is hereby incorporated by reference in its entirety. Liver microsomes from Crj;CD rats or humans were incubated with 2 μM of each tested compound; thereafter, the supernatant was analyzed by HPLC-MS for the concentration of the tested compound present. Human liver microsomes, pooled, 20 mg/mL, were obtained from […] #H0610). […] Alternatively and if desired, rat liver microsomes can be obtained commercially from, e.g., XenoTech (Sprague-Dawley rat liver microsomes, pooled, 20 mg/mL, cat #R1000). β-NADPH (β-nicotinamide adenine dinucleotide 2'-phosphate reduced tetrasodium salt hydrate) was obtained from Oriental Yeast Co., Ltd. (Tokyo, Japan). Each tested compound, present at an initial concentration of 2 μM, was incubated at 37° C. in the presence of 0.5 mg/mL of either human microsomes or rat microsomes in suspension in 50 mM Tris-HCl buffer (7.4 pH), 150 mM KCl, 10 mM MgCl2, and 1 mM β-NADPH. Incubation was initiated upon the addition of a 100-fold concentrated solution of the tested compound to one of the microsome preparations. Incubation was terminated by addition of a two-fold volume of a 1/1 mixture of acetonitrile/methanol after either 0 minutes or 30 minutes of incubation at 37° C. Thereafter, proteins and other macromolecules from the microsome preparation were removed by centrifugation. All incubations were conducted in duplicate. […] The HPLC system consisted of a Waters 2795 separations module (Waters Corp., Milford, Mass.) equipped with an inline degasser, temperature controlled auto-sampler, and column oven. The analytical column was a Waters […], 2.1 mm×20 mm column. The mass analyzer was a Waters ZQ, single quadrupole mass spectrometer equipped with an electrospray ionization source operating in the positive ionization mode and utilizing a stainless steel spray capillary. […]
# rat plasma = assay: Rat protein binding, equilibrium dialysis of rat plasma; format: in vitro ADME; conditions: 24 hours dialysis at 37° C.
# Description: The extent of in vitro binding of Compound (1F), […], or W-212393 to rat plasma was determined as an assessment of the protein binding of each compound, i.e., compound unavailable for modulating receptor activity. Plasma from rats containing a tested compound in one chamber of a dialysis cell was dialyzed with PBS in the other chamber; thereafter, the supernatant from each chamber was analyzed for the concentration of the tested compound present. A cell suitable for equilibrium dialysis was used in the determinations. The dialysis membrane described in Example 10 (with molecular mass cutoff of 12,000-14,000 Da) separated the dialysis cell into two chambers. The membrane was soaked with purified water and PBS before being placed into the dialysis cell. 4 μL of an iv formulation of each tested compound was added to 996 μL of rat plasma, the latter obtained using syringe containing heparin and EDTA by the procedure described in Example 10, to provide a plasma sample with a tested compound concentration of 2 μg/mL. 450 μL of the plasma sample was applied to one chamber (plasma chamber) of the dialysis cell. A 450 μL aliquot of PBS was applied to the other chamber (PBS chamber) of the dialysis cell. The dialysis study was conducted in duplicate for each tested compound. After 24 hours of equilibrium dialysis at 37° C., 30 μL of liquid from the plasma chamber of the dialysis cell was collected and to this was added 270 μL of fresh PBS (this combination was designated Sample “1”). Then, 270 μL of liquid from the PBS chamber of the dialysis cell was collected and to this was added 30 μL of control rat plasma (i.e., rat plasma never exposed to any test compound, this combination was designated Sample “2”). Thereafter, each sample was mixed well and stored in a freezer until the next analysis step. After the protein precipitated in the freezer, each supernatant thusly obtained was analyzed by LC-MS-MS for unbound test compound. […] Thereafter, the percentage of rat protein-bound (“RPB”) tested compound was calculated as follows: […]
# rats [6] = conditions: by suppression of rhythmic firing of SCN neurons; cited from earlier work
# in vivo [7] = conditions: male, Crl, CD(SD), rat, brain homogenate and plasma, iv, 0.5 mg/kg
smiles,measurement,setting,value
O=C(O)c1nc2ccccc2n([C@H]2C[C@H]3CCC[C@@H](C2)N3C2CC3CCCC(C3)C2)c1=O (stereo partly shown) [Compound (1D)],absorption from the gastrointestinal tract,"[1]; 3 mg oral dose, aqueous suspension",essentially completely absorbed
same,Mean % Dose Excreted Unchanged,[1]; 3.0 mg single oral dose,89%
same,Mean Total Amount Excreted Unchanged,[1]; 3.0 mg single oral dose,2.66 mg
same,Mean % Dose Excreted Unchanged,[1]; 10 mg single oral dose,70%
same,Mean Total Amount Excreted Unchanged,[1]; 10 mg single oral dose,6.95 mg
same,Mean % Dose Excreted Unchanged,[1]; 30 mg single oral dose,28%
same,Mean Total Amount Excreted Unchanged,[1]; 30 mg single oral dose,8.37 mg
same,renal elimination mechanism,[1]; in addition to glomerular filtration,active renal tubular secretion
same,CL renal,[1]; 3.0 mg single oral dose,275 mL/min
same,CL renal,[1]; 10 mg single oral dose,266 mL/min
same,CL renal,[1]; 30 mg single oral dose,270 mL/min
same,excretion in human urine,"[1]; single oral doses 3, 10, 30 mg",excreted largely unchanged
same,overall sleep effect,rats [2]; 30 mg/kg/day oral,significant sleep-enhancing effects
same,tachyphylaxis over the seven day period,rats [2]; 30 mg/kg/day oral for 7 days,minimal tachyphylaxis
same,percentage of time spent in wakefulness,"rats [2]; 30 mg/kg/day oral, Day 1, 1 hour block at 4 hours after dosing (FIG. 5A)",about 52%
same,percentage of time spent in NREM sleep,"rats [2]; 30 mg/kg/day oral, Day 1, 1 hour block at 4 hours after dosing (FIG. 5C)",about 41%
same,percentage of time spent in NREM sleep,"rats [2]; 30 mg/kg/day oral, Day 1, 1 hour block at 5 hours after dosing (FIG. 5C)",~54%
same,percentage of time spent in REM sleep,"rats [2]; 30 mg/kg/day oral, Day 1, 1 hour block at 7 hours after dosing (FIG. 5B)",about 2.5%
same,total amount of wakefulness,"rats [2]; 30 mg/kg/day oral, Day 1, 3 hour block, 3 to 6 hours after dosing (FIG. 6A)",about 47%
same,total amount of NREM sleep,"rats [2]; 30 mg/kg/day oral, Day 1, 3 hour block, 3 to 6 hours after dosing (FIG. 6C)",about 46%
same,effect on percentage of time spent in REM sleep,"rats [2]; 30 mg/kg/day oral, Day 1, 3 hour blocks (FIG. 6B)",no significant effects
same,effect on percentage of time spent in REM sleep,"rats [2]; 30 mg/kg/day oral, Day 4 (FIG. 7B, 8B)",no significant effects
same,total amount of wakefulness,"rats [2]; 30 mg/kg/day oral, Day 4, 3 to 6 hours after dosing (FIG. 8A)",about 55%
same,total amount of NREM sleep,"rats [2]; 30 mg/kg/day oral, Day 4, 3 to 6 hours after dosing (FIG. 8C)",about 41%
same,percentage of time spent in NREM sleep,"rats [2]; 30 mg/kg/day oral, Day 4, 1 hour block at 4 hours after dosing (FIG. 7C)",about 42%
same,effect on percentage of time spent in REM sleep,"rats [2]; 30 mg/kg/day oral, Day 7 (FIG. 9B, 10B)",no significant effects
same,percentage of time spent in wakefulness versus vehicle,"rats [2]; 30 mg/kg/day oral, Day 7, lights-out period (FIG. 9A)",decreasing tendency
same,percentage of time spent in NREM sleep versus vehicle,"rats [2]; 30 mg/kg/day oral, Day 7, lights-out period (FIG. 9C)",increased tendency
same,effect on time spent in REM sleep,rats [2]; Day 8 (no dosing) after 30 mg/kg/day for 7 days (FIG. 11B),no effect
same,percentage of time spent in wakefulness versus vehicle,"rats [2]; Day 8 (no dosing) after 30 mg/kg/day for 7 days, at 27, 35, and 46 hours (FIG. 11A)",significantly increased
same,percentage of time spent in NREM sleep versus vehicle,"rats [2]; Day 8 (no dosing) after 30 mg/kg/day for 7 days, at 27, 35, and 46 hours (FIG. 11C)",significantly decreased
same,NOAEL,in vivo [3],600 mg/kg
same,"Average % Elimination, Fecal",[4]; Rat (female),27.9%
same,"Average % Elimination, Fecal + Urinary",[4]; Rat (female),94.7%
same,"Average % Elimination, Urinary",[4]; Rat (female),66.8%
same,"Average % Elimination, Fecal",[4]; Rat (male),41.6%
same,"Average % Elimination, Fecal + Urinary",[4]; Rat (male),96.0%
same,"Average % Elimination, Urinary",[4]; Rat (male),54.4%
CNC(=O)Cn1c(=O)n(C2CCN([C@@H]3Cc4cccc5cccc3c45)CC2)c2ccccc21 [Compound W-212393],solubility at 16 h,[5],42 µM
same,Human Metabolic Stability (%),human liver microsomes,27.3%
same,stability in rat plasma during the determination,rat plasma,unstable in plasma
same,effect on circadian body temperature rhythm,rats [6],induced a phase advance
same,Kp at 0.5 h,in vivo [7],0.5
